Measurements reported in patent US8742106B2 (Novartis AG, priority 2009, dated 2014).

Assays:
human orexin 2 receptors = human orexin 2 receptors (Homo sapiens (Human), UniProt O43614); test: Calcium Accumulation in Cells (FLIPR), antagonism of orexin A; assay type: cell-based; conditions: for Ki: antagonism of orexin A, Cheng-Prusoff corrected, read-out: FLIPR hOx2R Ki; for inhibition at 10 µM: measured at a concentration of 10 μM of compound, read-out: FLIPR hOx2R % inhibition value
Description: (§1) Calcium Accumulation in Cells (FLIPR):
Cells expressing human orexin 1 or human orexin 2 receptors, were seeded at 8,000 cells/well in 384 well black-walled clear bottom, poly-D-lysine coated plates.
On the day of the experiment, the cells seeded in black plates were treated with assay buffer containing the Ca^2+ sensitive fluorescent dye Fluo4-AM (2 μM), and probenecid (0.1 mM). After 1 h plates were washed twice with, and resuspended in, assay buffer containing probenecid (0.1 mM) using a multi plate washer. […] Fluorescence measurements were then continued every 1 S for 120 S followed by every 4 S for 240 S.
(§2) The measurements were typically made in two sequences:
(§3) In the first round, compounds of formula (I) or (I′) were tested alone, to detect possible agonist activity. Compounds of formula I or I′ were tested usually in a concentration range from 10^−9 M to 10^−5 M.
(§4) In the second round, performed one hour later (to allow for equilibration), Orexin A was tested either in the absence (calibration curves, Orexin A agonist controls) or in the presence of compounds of formula (I) or (I′) to determine antagonism.

human orexin 1 receptors = human orexin 1 receptors (Homo sapiens (Human), UniProt O43613); test: as above; assay type: cell-based; conditions: for Ki: antagonism of orexin A, Cheng-Prusoff corrected, read-out: FLIPR hOx1R Ki; for inhibition at 10 µM: measured at a concentration of 10 μM of compound, read-out: FLIPR hOx1R % inhibition value
Chain of human orexin 1 receptors (O43613 whole entry): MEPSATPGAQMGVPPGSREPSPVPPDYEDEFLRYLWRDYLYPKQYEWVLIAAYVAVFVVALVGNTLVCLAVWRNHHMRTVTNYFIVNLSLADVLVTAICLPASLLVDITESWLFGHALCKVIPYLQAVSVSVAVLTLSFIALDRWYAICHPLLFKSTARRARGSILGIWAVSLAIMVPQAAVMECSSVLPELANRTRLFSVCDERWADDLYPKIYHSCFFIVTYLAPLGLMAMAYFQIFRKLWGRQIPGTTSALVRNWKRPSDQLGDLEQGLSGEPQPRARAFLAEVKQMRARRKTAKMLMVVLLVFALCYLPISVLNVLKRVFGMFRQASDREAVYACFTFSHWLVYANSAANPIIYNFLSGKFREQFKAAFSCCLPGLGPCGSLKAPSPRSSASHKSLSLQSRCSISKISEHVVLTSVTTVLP
Description: as §1
Cells expressing human orexin 1 or human orexin 2 receptors, were seeded at 8,000 cells/well in 384 well black-walled clear bottom, poly-D-lysine coated plates. After 24 h, the medium was removed and cells were washed once with phosphate buffered saline and serum-deprived overnight in assay buffer (130 mM NaCl, 5.4 mM KCl, 1.8 mM CaCl2, 0.8 mM MgSO4, 0.9 mM NaH2PO4, 25 mM glucose, 20 mM HEPES, pH 7.4) containing bovine serum albumin (1% w/v).
On the day of the experiment, the cells seeded in black plates were treated with assay buffer containing the Ca^2+ sensitive fluorescent dye Fluo4-AM (2 μM), and probenecid (0.1 mM). After 1 h plates were washed twice with, and resuspended in, assay buffer containing probenecid (0.1 mM) using a multi plate washer. The plates were placed into a FLIPR II (Fluorometric Imaging Plate Reader, Molecular Devices, Sunnyvale, Calif., USA) and baseline fluorescence (fluorescence light units, FLU) was measured (5 measurements, 2 S each; laser excitation 488 nm at 0.6-1 W, CCD camera exposure 0.4 s) before addition of buffer alone (basal) or containing test compounds (either compound of formula (I) or (I′) alone, agonist alone or agonist in the presence of various concentrations of compounds of formula (I) or (I′)). Fluorescence measurements were then continued every 1 S for 120 S followed by every 4 S for 240 S.
as §2, §3, §4

Chain of human orexin 2 receptors (O43614 whole entry): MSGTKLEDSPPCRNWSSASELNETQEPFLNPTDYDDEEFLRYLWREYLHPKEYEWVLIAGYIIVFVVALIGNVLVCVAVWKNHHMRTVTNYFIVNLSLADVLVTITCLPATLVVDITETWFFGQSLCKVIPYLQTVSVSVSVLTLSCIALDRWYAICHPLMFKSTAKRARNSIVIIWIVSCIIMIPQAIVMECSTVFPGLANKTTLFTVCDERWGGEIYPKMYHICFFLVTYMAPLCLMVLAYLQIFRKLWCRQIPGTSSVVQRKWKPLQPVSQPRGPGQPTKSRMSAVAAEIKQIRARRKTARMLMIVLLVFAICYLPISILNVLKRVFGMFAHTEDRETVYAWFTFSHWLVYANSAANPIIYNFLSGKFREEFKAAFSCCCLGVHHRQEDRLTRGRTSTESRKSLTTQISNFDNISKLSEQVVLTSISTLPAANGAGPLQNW

Row | Compound | Ki (human orexin 2 receptors) [nM] | Ki (human orexin 1 receptors) [nM] | inhibition at 10 µM (human orexin 1 receptors) [%] | inhibition at 10 µM (human orexin 2 receptors) [%]
1 | Cc1n[nH]c(C)c1C(C)NC(=O)COc1cc(C)c2c(C3CC3)nn(C)c2n1 (centres unmarked) [Example 1.76, 2-(3-cyclopropyl-1,4-dimethyl-1H-pyrazolo[3,4-b]pyridin-6-yloxy)-N-(1-(3,5-dimethyl-1H-pyrazol-4-yl)ethyl)acetamide] | 606 | 395 | – | –
2 | C[C@H](NC(=O)CNc1cc(C(F)(F)F)c2c(-c3ccccc3)nn(C)c2n1)c1ccccc1 [Example 3.1, (S)-2-(1-methyl-3-phenyl-4-(trifluoromethyl)-1H-pyrazolo[3,4-b]pyridin-6-ylamino)-N-(1-phenylethyl)acetamide] | 1140 | 357 | – | –
3 | Cc1ccc([C@H](C)NC(=O)COc2cc(C)c3c(-c4ccnn4C)nn(C)c3n2)cc1 [Example 4.3, (S)-2-(1,4-dimethyl-3-(1-methyl-1H-pyrazol-5-yl)-1H-pyrazolo[3,4-b]pyridin-6-yloxy)-N-(1-p-tolylethyl)acetamide] | 2220 | 2680 | – | –
4 | Cc1ccc([C@H](C)NC(=O)COc2cc(C)c3c(-c4cnc(C)n4C)nn(C)c3n2)cc1 [Example 4.4, (S)-2-(3-(1,2-dimethyl-1H-imidazol-5-yl)-1,4-dimethyl-1H-pyrazolo[3,4-b]pyridin-6-yloxy)-N-(1-p-tolylethyl)acetamide] | 725 | 799 | – | –
5 | Cc1ccc([C@H](C)NC(=O)COc2cc(C)c3c(-c4cc(C)nn4C)nn(C)c3n2)cc1 [Example 4.5, (S)-2-(3-(1,3-dimethyl-1H-pyrazol-5-yl)-1,4-dimethyl-1H-pyrazolo[3,4-b]pyridin-6-yloxy)-N-(1-p-tolylethyl)acetamide] | 923 | 670 | – | –
6 | Cc1ccc([C@H](C)NC(=O)COc2cc(C)c3c(-c4cncn4C)nn(C)c3n2)cc1 [Example 4.11, (S)-2-(1,4-dimethyl-3-(1-methyl-1H-imidazol-5-yl)-1H-pyrazolo[3,4-b]pyridin-6-yloxy)-N-(1-p-tolylethyl)acetamide] | 1630 | 4330 | – | –
7 | COc1cncc(-c2nn(C)c3nc(OCC(=O)N[C@@H](C)c4ccc(C)cc4)cc(C)c23)n1 [Example 4.12, (S)-2-(3-(6-methoxypyrazin-2-yl)-1,4-dimethyl-1H-pyrazolo[3,4-b]pyridin-6-yloxy)-N-(1-p-tolylethyl)acetamide] | 202 | 240 | – | –
8 | Cc1ccc([C@H](C)NC(=O)COc2cc(C)c3c(-c4cn(C)cn4)nn(C)c3n2)cc1 [Example 4.13, (S)-2-(1,4-dimethyl-3-(1-methyl-1H-imidazol-4-yl)-1H-pyrazolo[3,4-b]pyridin-6-yloxy)-N-(1-p-tolylethyl)acetamide] | 626 | 1160 | – | –
9 | Cc1nn(C)c(C)c1C(C)NC(=O)COc1cc(C(F)F)c2c(C3CC3)nn(C)c2n1 (centres unmarked) [Example 6.9, 2-(3-cyclopropyl-4-(difluoromethyl)-1-methyl-1H-pyrazolo[3,4-b]pyridin-6-yloxy)-N-(1-(1,3,5-trimethyl-1H-pyrazol-4-yl)ethyl)acetamide] | 527 | 778 | – | –
10 | COc1ccc(C(C)NC(=O)COc2cc(C(F)F)c3c(C4CC4)nn(C)c3n2)cn1 (centres unmarked) [Example 6.10, 2-(3-cyclopropyl-4-(difluoromethyl)-1-methyl-1H-pyrazolo[3,4-b]pyridin-6-yloxy)-N-(1-(6-methoxypyridin-3-yl)ethyl)acetamide] | 184 | 516 | – | –
11 | Cc1ccc([C@H](C)NC(=O)COc2cc(C(C)C)c3c(C4CC4)nn(C)c3n2)cc1 [Example 6.11, (S)-2-(3-cyclopropyl-4-isopropyl-1-methyl-1H-pyrazolo[3,4-b]pyridin-6-yloxy)-N-(1-p-tolylethyl)acetamide] | 208 | 691 | – | –
12 | Cc1nn(C)c(C)c1C(C)NC(=O)COc1cc(C(F)(F)F)c2c(C3CC3)nn(C)c2n1 (centres unmarked) [Example 6.12, 2-(3-cyclopropyl-1-methyl-4-(trifluoromethyl)-1H-pyrazolo[3,4-b]pyridin-6-yloxy)-N-(1-(1,3,5-trimethyl-1H-pyrazol-4-yl)ethyl)acetamide] | 165 | 680 | – | –
13 | Cc1ccc(C(C)NC(=O)COc2cc(C(F)(F)F)c3c(C4CC4)nn(C)c3n2)cn1 (centres unmarked) [Example 6.16, 2-(3-cyclopropyl-1-methyl-4-(trifluoromethyl)-1H-pyrazolo[3,4-b]pyridin-6-yloxy)-N-(1-(6-methylpyridin-3-yl)ethyl)acetamide] | 188 | 1590 | – | –
14 | Cc1ccc(C(C)NC(=O)COc2cc(C(F)F)c3c(-c4ccccc4)nn(C)c3n2)cn1 (centres unmarked) [Example 6.18, 2-(4-(difluoromethyl)-1-methyl-3-phenyl-1H-pyrazolo[3,4-b]pyridin-6-yloxy)-N-(1-(6-methylpyridin-3-yl)ethyl)acetamide] | 98 | 535 | – | –
15 | Cc1ccc(C(C)NC(=O)COc2cc(C(F)F)c3c(C4CC4)nn(C)c3n2)cn1 (centres unmarked) [Example 6.19, 2-(3-cyclopropyl-4-(difluoromethyl)-1-methyl-1H-pyrazolo[3,4-b]pyridin-6-yloxy)-N-(1-(6-methylpyridin-3-yl)ethyl)acetamide] | 800 | – | 41 | –
16 | Cc1ccc([C@H](C)NC(=O)COc2ccc3c(C4CC4)nn(C)c3n2)cc1 [Example 6.23, (S)-2-(3-cyclopropyl-1-methyl-1H-pyrazolo[3,4-b]pyridin-6-yloxy)-N-(1-p-tolylethyl)acetamide] | 237 | 1100 | – | –
17 | COc1ccc([C@H](C)NC(=O)COc2cc(C)c3c(C(C)C)nn(C)c3n2)cc1 [Example 6.27, (S)-2-(3-isopropyl-1,4-dimethyl-1H-pyrazolo[3,4-b]pyridin-6-yloxy)-N-(1-(4-methoxyphenyl)ethyl)acetamide] | 105 | 415 | – | –
18 | COc1ccc(C(C)NC(=O)COc2cc(C)c3c(C(C)C)nn(C)c3n2)cn1 (centres unmarked) [Example 6.28, 2-(3-isopropyl-1,4-dimethyl-1H-pyrazolo[3,4-b]pyridin-6-yloxy)-N-(1-(6-methoxypyridin-3-yl)ethyl)acetamide] | 1220 | – | 39 | –
19 | Cc1nn(C)c(C)c1C(C)NC(=O)COc1cc(C)c2c(C(C)C)nn(C)c2n1 (centres unmarked) [Example 6.29, 2-(3-isopropyl-1,4-dimethyl-1H-pyrazolo[3,4-b]pyridin-6-yloxy)-N-(1-(1,3,5-trimethyl-1H-pyrazol-4-yl)ethyl)acetamide] | – | – | 36 | 34
20 | COc1ccc(C(C)NC(=O)COc2cc(C)c3c(-c4cc(C)oc4C)nn(C)c3n2)cn1 (centres unmarked) [Example 6.32, 2-(3-(2,5-dimethylfuran-3-yl)-1,4-dimethyl-1H-pyrazolo[3,4-b]pyridin-6-yloxy)-N-(1-(6-methoxypyridin-3-yl)ethyl)acetamide] | 950 | 845 | – | –
21 | Cc1ccc([C@H](C)NC(=O)COc2ccc3c(-c4ccccc4C)nn(C)c3n2)cc1 [Example 6.35, (S)-2-(1-methyl-3-o-tolyl-1H-pyrazolo[3,4-b]pyridin-6-yloxy)-N-(1-p-tolylethyl)acetamide] | 126 | 256 | – | –
22 | Cc1cc(OCC(=O)NC2CCc3cc(F)ccc32)nc2c1c(C1CC1)nn2C (centres unmarked) [Example 6.40, 2-(3-cyclopropyl-1,4-dimethyl-1H-pyrazolo[3,4-b]pyridin-6-yloxy)-N-(5-fluoro-2,3-dihydro-1H-inden-1-yl)acetamide] | 589 | – | 21 | –
23 | Cc1cc(OCC(=O)NCC(C)C)nc2c1c(C1CC1)nn2C [Example 6.45, 2-(3-cyclopropyl-1,4-dimethyl-1H-pyrazolo[3,4-b]pyridin-6-yloxy)-N-isobutylacetamide] | – | – | 20 | 19
24 | Cc1cc(OCC(=O)NC2CCCC2)nc2c1c(C1CC1)nn2C [Example 6.46, N-cyclopentyl-2-(3-cyclopropyl-1,4-dimethyl-1H-pyrazolo[3,4-b]pyridin-6-yloxy)acetamide] | – | – | 16 | 26
25 | COc1ccc(C(C)NC(=O)COc2cc(C)c3c(C4CC4)nn(C)c3n2)cn1 (centres unmarked) [Example 6.47, 2-(3-cyclopropyl-1,4-dimethyl-1H-pyrazolo[3,4-b]pyridin-6-yloxy)-N-(1-(6-methoxypyridin-3-yl)ethyl)acetamide] | 747 | 1490 | – | –
